Laboratory results: US20020006933A1 (TAP Holdings, Inc., priority 2000, published 2002)

Legend:
clinical = settings: human, in vivo; for Cmax: Mean
humans = assay: Clinical experience with sublingual apomorphine tablets in humans (efficacy, side effects)
[1] = humans, 2 to 4 mg sublingual tablets, clinical experience

CN1CCc2cccc3c2[C@H]1Cc1ccc(O)c(O)c1-3 [Apomorphine, (R)-5,6,6a,7-tetrahydro-6-methyl-4H-dibenzo-[de,g]quinoline-10,11-diol]
AUC(0-inf) (clinical; sc, 1 mg): 3.39 ng·h/mL | Tmax (clinical; sc, 1 mg): 20.4 min | Cmax (clinical; sc, 1 mg): 3.22 ng/mL | AUC(0-inf) (clinical; male, 2 mg): 1.23 ng·h/mL | Tmax (clinical; male, 2 mg): 44.4 min | cmax, Mean (clinical; male, 2 mg): 0.70 ng/mL | Cmax (clinical; male, 2 mg): ~0.7 ng/mL | AUC(0-inf) (clinical; male, 4 mg): 2.37 ng·h/mL | Tmax (clinical; male, 4 mg): 43.2 min | cmax, Mean (clinical; male, 4 mg): 1.25 ng/mL | Cmax (clinical; male, 4 mg): ~1.25 ng/mL | AUC(0-inf) (clinical; male, 5 mg): 2.92 ng·h/mL | Tmax (clinical; male, 5 mg): 40.8 min | cmax, Mean (clinical; male, 5 mg): 1.70 ng/mL | Cmax (clinical; male, 5 mg): ~1.7 ng/mL | AUC(0-inf) (clinical; male, 6 mg): 3.6 ng·h/mL | Tmax (clinical; male, 6 mg): 39.6 min | cmax, Mean (clinical; male, 6 mg): 1.91 ng/mL | Cmax (clinical; male, 6 mg): ~1.91 ng/mL | incidence of emesis (humans; [1]): 2% | incidence of nausea (humans; [1]): about 13% | tolerability in humans (humans; up to 8 mg of apomorphine tablets): well tolerated | side-effects in humans (humans; up to a 6 mg dose via sublingual tablet): minimal side-effects | efficacy in humans (humans; up to a 6 mg dose via sublingual tablet, sexual dysfunction): good efficacy
